Measured values taken from US11026917B2, “Antioxidative stress compositions, methods of preparing and uses thereof” (priority 2016, dated 2021).

Assay: Concentrations of chemopreventive compounds and metabolites in dog serum by LC-MS/MS
Assay type: in vivo
Description: Serum was isolated from whole blood obtained during the two phases of the trial and analysed by LC-MS/MS.
Whole blood (6 ml) was collected from each canine subject at the end of the first and second phases of the study. Blood was obtained by venipuncture from either the cephalic or jugular vein (typically with an 18-20 gauge needle attached to a 10 ml syringe). Manual restraint and aseptic techniques were used. The blood from each dog was placed in labelled collection tubes (2 ml in lavender EDTA collection tubes, 1 ml in green lithium heparin collection tubes, and 3 ml in red silicone coated tubes). The lavender tubes were inverted and used to run Complete Blood Counts (CBC) and for isolation of lymphocytes, the green tubes were inverted and used to run Comprehensive Chemistry Blood Profiles (CCBP), and the blood within the red tubes were allowed to clot, and then centrifuged for 15 min at 3400 rpm to obtain serum. The serum was frozen prior to analysis by LC-MS/MS. The CBC and CCBPs were run on Abaxis™ VetScan machines, particularly the VS2 and HMS.
Liquid-liquid extraction was used to prepare dog serum for mass spectrometric analysis. Briefly, 300 μl of serum was mixed with 900 μl of ice-cold acetonitrile. Each sample was vortex mixed for 20 sec and then centrifuged for 10 min at 13,000×g. The supernatant was removed and evaporated to dryness under a stream of nitrogen, and each extract was reconstituted in 100 μl of acetonitrile/water (20:80, v/v) prior to analysis using LC-MS/MS.
Both instruments were equipped with negative ion electrospray and interfaced to Shimadzu HPLC systems (Prominence Ark. or Nexera, respectively). A Waters (Milford, Mass.) XBridge C18 column (2.1×100 mm; 2.5 μm) was used for chromatographic separations. The solvent system consisted of a 5-min linear gradient from 10% to 90% acetonitrile in water at a flow rate of 400 μl/min. The injection volume was 10 μl.
For quantitative analysis, selected reaction monitoring (SRM) was used with collision-induced dissociation and argon as the collision gas. Deprotonated molecules of each analyte were used as precursor ions, and the SRM transitions of the two most abundant product ions were selected as quantifiers and qualifiers, respectively. In some cases, only one SRM transition (quantifier) was used due to the low abundances of other fragment ions. […] The SRM transitions for genistein were m/z 269 to 89 and m/z 269 to 187, and the SRM transitions for genistein glucuronide and genistein sulfate were m/z 445 to 269 and m/z 349 to 269, respectively. Quercetin was measured using the SRM transitions of m/z 301 to 151 and m/z 301 to 179, and its glucuronide and sulfate metabolites were monitored using the transitions of m/z 477 to 301 and m/z 381 to 301, respectively. Synthetic isopentyl naringenin was used as an internal standard (SRM transition m/z 341 to 119).

Compound	detection in dog serum (in words) (dog, in vivo)	concentration at 3 weeks (dog, in vivo) [ng/mL]	further results
O=c1c(O)c(-c2ccc(O)c(O)c2)oc2cc(O)cc(O)c12 [Quercetin]	–	–	Concentration in serum, Second phase (dog, in vivo, 3 weeks): 2 ± 1 ng/mL
O=c1oc2c(O)c(O)cc3c(=O)oc4c(O)c(O)cc1c4c23 [Ellagic acid]	No ellagic acid or curcumin was detected in serum	–	–
O=S(=O)(O)Oc1cc(O)cc(C=Cc2ccc(O)cc2)c1 [resveratrol-3-sulfate]	most abundant form of resveratrol in dog serum	–	–
Oc1ccc(C=Cc2cc(O)cc(O)c2)cc1 [Resveratrol]	–	19.3 ± 11	–
O=S(=O)(O)Oc1ccc(/C=C/c2cc(O)cc(O)c2)cc1 [trans-Resveratrol-4′-sulfate]	–	44.4 ± 12.2	–
O=c1c(-c2ccc(O)cc2)coc2cc(O)cc(O)c12 [Genistein]	–	–	detection in dog serum (in words) (second phase, after 3 weeks of two biscuits/day): no unconjugated genistein was detected
COc1cc(/C=C/C(=O)CC(=O)/C=C/c2ccc(O[C@@H]3O[C@H](C(=O)O)[C@@H](O)[C@H](O)[C@H]3O)c(OC)c2)ccc1O [Curcumin glucuronide]	detected at low levels in serum of two dogs	–	–
O=S(=O)(O)Oc1cc(O)cc(/C=C\c2ccc(O)cc2)c1 [cis-Resveratrol-3-sulfate]	–	13.6 ± 5.27	–
